# Test results reported in ChEMBL document CHEMBL3351737, “Design, synthesis and exploring the quantitative structure-activity relationship of some antioxidant flavonoid analogues” (Bioorg Med Chem Lett, 2014).
# Experiment: Antioxidant activity assessed as DPPH radical scavenging activity incubated at room temperature for 20 mins by UV-visible spectrophotometry
# Conditions: not given
row,Compound,IC50 [mM]
1,O=C(O)c1ccccc1O [SALICYLIC ACID],278

# Same assay, conditions: DPPH radical (cell-free)
row,Compound,IC50 [mM]
1,O=c1c(O)c(-c2ccccc2)oc2cc(O)cc(O)c12 [GALANGIN],0.191
2,CN(C)c1ccc(-c2oc3ccccc3c(=O)c2O)cc1,0.022
3,O=c1cc(-c2ccc(Cl)cc2)oc2ccccc12,0.725
4,Cc1ccc(/C=C/C(=O)c2ccccc2O)cc1,7.72
5,O=C/C=C/c1ccccc1 [CINNAMALDEHYDE],372
6,COc1c(C(=O)/C=C(\O)c2ccccc2)ccc2occc12 [PONGAMOL],11.6
7,O=C(O)c1cc(O)c(O)c(O)c1 [GALLIC ACID],0.011
8,O=c1c(O)c(-c2ccc(Cl)cc2)oc2cc(O)cc(O)c12,27.8
9,O=Cc1ccco1 [FURFURAL],215
10,CC(C)c1ccc(-c2oc3ccccc3c(=O)c2O)cc1,11
11,O=C(/C=C/c1ccccc1)c1ccccc1O [2'-HYDROXYCHALCONE],78
12,O=C(/C=C\C=C/c1ccc2c(c1)OCO2)N1CCCCC1,90.7
13,O=c1c(O)c(-c2ccc3c(c2)OCO3)oc2ccccc12,0.094
14,O=C(/C=C/c1ccc(Cl)cc1)c1ccccc1O,6.1
15,O=c1c(O)c(-c2ccco2)oc2ccccc12,0.034
16,O=c1c(O)c(/C=C/c2ccccc2)oc2ccccc12,0.039
17,CC(C)c1ccc(-c2cc(=O)c3c(O)cc(O)cc3o2)cc1,29.6
18,CC(C)(C)Oc1ccc(-c2oc3cc(O)cc(O)c3c(=O)c2O)cc1,0.452
19,O=C(/C=C/C=C/c1ccccc1)c1ccccc1,113
20,CC(C)(C)c1ccc(-c2oc3cc(O)cc(O)c3c(=O)c2O)cc1,0.709

row,Compound,IC50 [mM]
1,Cc1c(C)c2c(c(C)c1O)CCC(C)(C(=O)O)O2 (stereo unspecified) [TROLOX],0.012
2,CN(C)c1ccc(-c2oc3cc(O)cc(O)c3c(=O)c2O)cc1,0.612
3,Cc1ccc(-c2cc(=O)c3ccccc3o2)cc1,6.34
4,COc1ccc(-c2oc3ccccc3c(=O)c2O)cc1,0.114
5,O=C1O[C@H]([C@@H](O)CO)C(O)=C1O [ASCORBIC ACID],0.033
6,CC(C)(C)c1ccc(/C=C/C(=O)c2ccccc2O)cc1,17.1
7,O=C(/C=C/C=C/c1ccccc1)c1ccccc1O,7.13
8,O=C(O)/C=C/c1ccc(O)cc1 [COUMARIC ACID],18.4
9,CC(C)(C)c1ccc(-c2cc(=O)c3ccc(O)cc3o2)cc1,44.3
10,O=c1c(O)c(-c2ccc(Cl)cc2)oc2ccccc12,0.663
11,O=C1C[C@@H](c2ccccc2)Oc2cc(O)cc(O)c21 [PINOCEMBRIN],59.3
12,O=c1c(O)c(-c2ccccc2)oc2ccccc12 [FLAVONOL],0.387
13,CC(=O)c1ccccc1O,155
14,COc1ccc(O)c(C(C)(C)C)c1.COc1ccc(O)cc1C(C)(C)C [BUTYLATED HYDROXYANISOLE],0.019
15,COc1ccc(/C=C/C(=O)c2ccccc2O)cc1,190
16,O=C(/C=C/c1ccco1)c1ccccc1O,4.27
17,COc1ccc(-c2cc(=O)c3ccccc3o2)cc1 [4'-METHOXYFLAVONE],682
18,COc1c(-c2ccccc2)oc2c(ccc3occc32)c1=O [KARANJIN],4.23
19,O=Cc1ccccc1O [SALICYLADEHYDE],96.6
20,O=C(O)/C=C/c1ccccc1 [CINNAMIC ACID],1730
